# In ChEMBL document CHEMBL1127278, “N-chloromethyl quinuclidinium derivatives: A new class of irreversible ligands for 5-HT3 receptors” (Bioorg Med Chem Lett, 1994):
# Biological target: T1, Serotonin 3 (5-HT3) receptor (Rattus norvegicus, UniProt P35563+Q9JJ16)
# T1 sequence (P35563 whole entry): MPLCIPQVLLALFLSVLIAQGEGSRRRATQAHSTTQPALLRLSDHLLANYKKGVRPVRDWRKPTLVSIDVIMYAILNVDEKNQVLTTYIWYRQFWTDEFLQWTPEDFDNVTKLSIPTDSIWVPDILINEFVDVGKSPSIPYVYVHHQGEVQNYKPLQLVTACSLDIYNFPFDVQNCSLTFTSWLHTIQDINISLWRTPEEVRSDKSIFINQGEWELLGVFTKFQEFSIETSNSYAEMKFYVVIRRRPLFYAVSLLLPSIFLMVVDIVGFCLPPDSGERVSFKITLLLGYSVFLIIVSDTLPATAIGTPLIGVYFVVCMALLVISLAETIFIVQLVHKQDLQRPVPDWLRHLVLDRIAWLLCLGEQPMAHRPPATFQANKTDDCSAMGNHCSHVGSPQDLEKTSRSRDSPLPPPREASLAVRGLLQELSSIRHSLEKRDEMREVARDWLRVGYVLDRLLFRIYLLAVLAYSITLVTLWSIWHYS
# T1 sequence (Q9JJ16 whole entry): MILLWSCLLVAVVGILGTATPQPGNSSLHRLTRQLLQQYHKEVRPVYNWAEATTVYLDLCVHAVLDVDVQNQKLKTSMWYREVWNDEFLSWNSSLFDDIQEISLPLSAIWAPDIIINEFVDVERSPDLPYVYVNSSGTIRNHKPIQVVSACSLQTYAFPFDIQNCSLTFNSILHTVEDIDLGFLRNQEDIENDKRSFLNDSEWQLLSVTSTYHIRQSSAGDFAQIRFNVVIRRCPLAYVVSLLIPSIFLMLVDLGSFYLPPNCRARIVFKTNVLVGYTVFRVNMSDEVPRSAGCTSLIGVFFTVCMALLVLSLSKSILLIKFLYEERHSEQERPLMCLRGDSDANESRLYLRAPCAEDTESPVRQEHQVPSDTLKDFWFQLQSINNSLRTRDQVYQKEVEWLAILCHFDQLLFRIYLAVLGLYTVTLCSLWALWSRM
# Assay: Binding affinity to 5-hydroxytryptamine 3 receptor in rat entorhinal cortex using [3H]-BRL 43694 as radioligand
row,Compound,Ki
1,COc1cc(N)c(Cl)cc1C(=O)N[C@H]1C[N+]2(CCl)CCC1CC2,0.0201 µM
2,Nc1ccc2c3c(cccc13)C(=O)N([C@H]1C[N+]3(CCl)CCC1CC3)C2=O,0.00035 µM
3,COc1cc(N)c(Cl)cc1C(=O)N[C@@H]1C[N+]2(CCl)CCC1CC2,0.0148 µM
4,Nc1ccc2c3c(cccc13)C(=O)N([C@@H]1C[N+]3(CCl)CCC1CC3)C2=O,0.328 µM
